# From patent publication US11987586B1 (TAKEDA PHARMACEUTICAL COMPANY LIMITED, priority 2022, dated 2024)
# Target: T1, human OX2 receptor (Homo sapiens, UniProt O43614)
# T1 construct: expressed in transfected cells
# T1 sequence (O43614 1-444): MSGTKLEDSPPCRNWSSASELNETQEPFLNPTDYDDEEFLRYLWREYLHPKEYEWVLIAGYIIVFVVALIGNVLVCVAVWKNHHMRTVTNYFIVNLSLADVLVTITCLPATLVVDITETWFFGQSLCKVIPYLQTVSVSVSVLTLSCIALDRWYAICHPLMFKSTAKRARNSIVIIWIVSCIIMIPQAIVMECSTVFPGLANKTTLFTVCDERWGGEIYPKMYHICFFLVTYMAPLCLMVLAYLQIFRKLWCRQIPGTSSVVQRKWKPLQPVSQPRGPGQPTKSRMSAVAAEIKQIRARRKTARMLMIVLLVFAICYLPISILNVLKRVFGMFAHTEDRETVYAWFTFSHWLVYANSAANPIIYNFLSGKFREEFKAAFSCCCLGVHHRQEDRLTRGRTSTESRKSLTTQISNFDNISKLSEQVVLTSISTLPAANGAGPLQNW
# Assay: Measurement of orexin type 2 receptor agonist activity (calcium fluorescence, Fluo-4, FDSS)
# Assay type: cell-based
# Settings: 3 uM test compound; CHO cells expressing human OX2 receptor; DMSO = 0%, 10 nM orexin A (human) = 100%
# Method: In order to obtain cell clones that stably express human orexin type 2 receptor, human orexin type 2 (residues 1-444, NCBI Reference Sequence: AK314279) was constructed in a pcDNA3.1 (+) vector (Invitrogen) to express in mammalian cells. This plasmid DNA was transfected into CHO-K1 cells by electroporation, and stable clones were obtained by limiting dilution using resistance to G418 as a selection marker.
# CHO cells in which human OX2 receptor was forcibly expressed were seeded at 10,000 cells/well into a 384-well black transparent bottom plate (BD falcon), and were incubated at 37° C., 5% CO2 for 1 day after incubation at room temperature for 30 minutes. After removing the cell plate medium, assay buffer containing calcium indicator A (HBSS (Thermo Fisher Scientific), 20 mM HEPES (Thermo Fisher Scientific), 0.1% BSA (Sigma-Aldrich), 2.5 μg/mL Fluo-4 AM (Dojin Kagaku), 0.08% Pluronic F127 (Dojin Kagaku), 1.25 mM probenecid (Dojin Kagaku)) was added at 30 μL/well. After incubation in a 5% CO2 incubator at 37° C. for 30 minutes, it was incubated at room temperature for another 30 minutes. Add 10 μL/well of the test compound diluted with assay buffer B (HBSS, 20 mM HEPES, 0.1% BSA), and use FDSS μCELL (Hamamatsu Photonics) to measure the fluorescence value every 1 second for 1 minute, and then every 2 seconds for 1 minute. It was measured for 1 minute and 40 seconds. The amount of fluorescence value when DMSO is added instead of the test compound is defined as 0%, and the amount of fluorescence value when orexin A (human) (Peptide Institute) with a final concentration of 10 nM is added is defined as 100%. The activity (%) of the test compound was calculated.
row,SMILES,"OX2R agonist activity (3 uM, %) [%]"
1,"CS(=O)(=O)N[C@@H]1CN2C(=O)N(c3noc4cc(Cl)c(F)c(-c5c(F)cc(F)cc5F)c34)C[C@@H]2C1(F)F [Example 40, N-{(6R,7aR)-2-[6-chloro-5-fluoro-4-(2,4,6-trifluorophenyl)-1,2-benzoxazol-3-yl]-7,7-difluoro-3-oxohexahydro-1H-pyrrolo[1,2-c]imidazol-6-yl}methanesulfonamide]",103
2,"CS(=O)(=O)N[C@@H]1Cn2c(cn(-c3noc4cc(F)cc(-c5c(F)cccc5F)c34)c2=O)C1(F)F [Example 46, N-{(6R)-2-[4-(2,6-difluorophenyl)-6-fluoro-1,2-benzoxazol-3-yl]-7,7-difluoro-3-oxo-2,5,6,7-tetrahydro-3H-pyrrolo[1,2-c]imidazol-6-yl}methanesulfonamide]",102
3,"CS(=O)(=O)N[C@@H]1CN2C(=O)N(c3noc4ccc(F)c(-c5c(F)cc(F)cc5F)c34)C[C@@H]2C1(F)F [Example 47, N-{(6R,7aR)-7,7-Difluoro-2-[5-fluoro-4-(2,4,6-trifluorophenyl)-1,2-benzoxazol-3-yl]-3-oxohexahydro-1H-pyrrolo[1,2-c]imidazol-6-yl}methanesulfonamide]",91
4,"CCS(=O)(=O)N[C@H]1C[C@@H]2CN(c3noc4cccc(-c5c(F)cccc5F)c34)C(=O)N2C1 [Example 49, N-{(6S, 7aR)-2-[4-(2,6-difluorophenyl)-1,2-benzoxazol-3-yl]-3-oxohexahydro-1H-pyrrolo[1,2-c]imidazol-6-yl}ethanesulfonamide]",94
5,"CCS(=O)(=O)N[C@H]1C[C@H]2CN(c3nsc4cccc(-c5c(F)cccc5F)c34)C(=O)N2C1 [Example 55, N-{(6S,7aS)-2-[4-(2,6-difluorophenyl)-1,2-benzothiazol-3-yl]-3-oxohexahydro-1H-pyrrolo[1,2-c]imidazol-6-yl}ethanesulfonamide]",108
6,"CCS(=O)(=O)N[C@@H]1CN2C(=O)N(c3noc4cccc(-c5c(F)cccc5F)c34)C[C@]2(C)C1 [Example 57, N-{(6S,7aS)-2-[4-(2,6-difluorophenyl)-1,2-benzoxazol-3-yl]-7a-methyl-3-oxohexahydro-1H-pyrrolo[1,2-c]imidazol-6-yl}ethanesulfonamide]",88
7,"CCS(=O)(=O)N[C@H]1C[C@H]2CN(c3noc4c(Cl)ccc(-c5c(F)cccc5F)c34)C(=O)N2C1 [Example 58, N-{(6S,7aS)-2-[7-chloro-4-(2,6-difluorophenyl)-1,2-benzoxazol-3-yl]-3-oxohexahydro-1H-pyrrolo[1,2-c]imidazol-6-yl}ethanesulfonamide]",88
8,"CCS(=O)(=O)N[C@H]1C[C@H]2CN(c3noc4ccc(F)c(-c5c(F)cccc5F)c34)C(=O)N2C1 [Example 66, N-{(6S,7aS)-2-[4-(2,6-difluorophenyl)-5-fluoro-1,2-benzoxazol-3-yl]-3-oxohexahydro-1H-pyrrolo[1,2-c]imidazol-6-yl}ethanesulfonamide]",97
9,"CS(=O)(=O)N[C@@H]1CN2C(=O)N(c3noc4cc(F)cc(-c5c(F)cccc5F)c34)C[C@@H]2C1(F)F [Example 72, N-{(6R,7aR)-2-[4-(2,6-Difluorophenyl)-6-fluoro-1,2-benzoxazol-3-yl]-7,7-difluoro-3-oxohexahydro-1H-pyrrolo[1,2-c]imidazol-6-yl}methanesulfonamide]",98
10,"CS(=O)(=O)N[C@@H]1Cn2c(cn(-c3noc4cc(Cl)cc(-c5c(F)cccc5F)c34)c2=O)C1(F)F [Example 73, N-{(6R)-2-[6-chloro-4-(2,6-difluorophenyl)-1,2-benzoxazol-3-yl]-7,7-difluoro-3-oxo-2,5,6,7-tetrahydro-3H-pyrrolo[1,2-c]imidazol-6-yl}methanesulfonamide]",105
11,"CS(=O)(=O)N[C@@H]1Cn2c(cn(-c3noc4ccc(F)c(-c5c(F)cccc5F)c34)c2=O)C1(F)F [Example 75, N-{(6R)-2-[4-(2,6-Difluorophenyl)-5-fluoro-1,2-benzoxazol-3-yl]-7,7-difluoro-3-oxo-2,5,6,7-tetrahydro-3H-pyrrolo[1,2-c]imidazol-6-yl}methanesulfonamide]",99

# More lines, now with the values ahead:
row,"OX2R agonist activity (3 uM, %) [%]",SMILES
1,100,"CCS(=O)(=O)N[C@H]1C[C@H]2CN(c3noc4cc(OC)cc(-c5c(F)cccc5F)c34)C(=O)N2C1 [Example 41, N-{(6S,7aS)-2-[4-(2,6-difluorophenyl)-6-methoxy-1,2-benzoxazol-3-yl]-3-oxohexahydro-1H-pyrrolo[1,2-c]imidazol-6-yl}ethanesulfonamide]"
2,100,"O=C1N(c2noc3cccc(-c4c(F)cccc4F)c23)C[C@@H]2C[C@H](NS(=O)(=O)C(F)F)CN12 [Example 43, N-{(6S,7aS)-2-[4-(2,6-difluorophenyl)-1,2-benzoxazol-3-yl]-3-oxohexahydro-1H-pyrrolo[1,2-c]imidazol-6-yl}-1,1-difluoromethanesulfonamide]"
3,99,"CCS(=O)(=O)N[C@H]1C[C@H]2CN(c3noc4cc(C5CC5)cc(-c5c(F)cccc5F)c34)C(=O)N2C1 [Example 56, N-{(6S,7aS)-2-[6-cyclopropyl-4-(2,6-difluorophenyl)-1,2-benzoxazol-3-yl]-3-oxohexahydro-1H-pyrrolo[1,2-c]imidazol-6-yl}ethanesulfonamide]"
4,99,"CCS(=O)(=O)N[C@H]1C[C@H]2CN(c3noc4cccc(-c5c(F)cc(F)cc5F)c34)C(=O)N2C1 [Example 65, N-{(6S,7aS)-3-oxo-2-[4-(2,4,6-trifluorophenyl)-1,2-benzoxazol-3-yl]hexahydro-1H-pyrrolo[1,2-c]imidazol-6-yl}ethanesulfonamide]"
5,97,"CCS(=O)(=O)N[C@@H]1CN2C(=O)N(c3noc4cc(Cl)cc(-c5c(F)cccc5F)c34)C[C@@H]2C1(F)F [Example 67, N-{(6R,7aR)-2-[6-chloro-4-(2,6-difluorophenyl)-1,2-benzoxazol-3-yl]-7,7-difluoro-3-oxohexahydro-1H-pyrrolo[1,2-c]imidazol-6-yl}ethanesulfonamide]"
6,109,"CCS(=O)(=O)N[C@@H]1Cn2c(cn(-c3noc4cc(Cl)cc(-c5c(F)cccc5F)c34)c2=O)C1(F)F [Example 68, N-{(6R)-2-[6-chloro-4-(2,6-difluorophenyl)-1,2-benzoxazol-3-yl]-7,7-difluoro-3-oxo-2,5,6,7-tetrahydro-3H-pyrrolo[1,2-c]imidazol-6-yl}ethanesulfonamide]"
7,96,"CCS(=O)(=O)N[C@@H]1CN2C(=O)N(c3noc4cc(F)cc(-c5c(F)cccc5F)c34)C[C@@H]2C1(F)F [Example 69, N-{(6R,7aR)-2-[4-(2,6-difluorophenyl)-6-fluoro-1,2-benzoxazol-3-yl]-7,7-difluoro-3-oxohexahydro-1H-pyrrolo[1,2-c]imidazol-6-yl}ethanesulfonamide]"
8,105,"CCS(=O)(=O)N[C@@H]1Cn2c(cn(-c3noc4cccc(-c5c(F)cccc5F)c34)c2=O)C1(C)C [Example 70, N-{(6S)-2-[4-(2,6-difluorophenyl)-1,2-benzoxazol-3-yl]-7,7-dimethyl-3-oxo-2,5,6,7-tetrahydro-3H-pyrrolo[1,2-c]imidazol-6-yl}ethanesulfonamide]"
9,104,"CS(=O)(=O)N[C@@H]1Cn2c(cn(-c3noc4cc(C(F)(F)F)cc(-c5c(F)cccc5F)c34)c2=O)C1(F)F [Example 74, N-{(6R)-2-[4-(2,6-difluorophenyl)-6-(trifluoromethyl)-1,2-benzoxazol-3-yl]-7,7-difluoro-3-oxo-2,5,6,7-tetrahydro-3H-pyrrolo[1,2-c]imidazol-6-yl}methanesulfonamide]"
10,105,"CCS(=O)(=O)N[C@@H]1Cn2c(cn(-c3noc4ccc(F)c(-c5c(F)cccc5F)c34)c2=O)C1(F)F [Example 76, N-{(6R)-2-[4-(2,6-difluorophenyl)-5-fluoro-1,2-benzoxazol-3-yl]-7,7-difluoro-3-oxo-2,5,6,7-tetrahydro-3H-pyrrolo[1,2-c]imidazol-6-yl}ethanesulfonamide]"
